Source: patent US20110280940A1, “Di-Vanilloyl And Tri-Vanilloyl Derivatives For Use In Anti-Cancer Therapy” (priority 2008, published 2011)
Where two headings read alike, the source gives them in different places. Each block holds one compound with its values, some of them ahead of it.

Columns and labels:
Aurora C kinase = target: T1, Aurora C kinase (Homo sapiens, UniProt Q9UQB9); assay: Radiometric protein kinase assay (33 PanQinase), Aurora C; format: biochemical; details: for IC50: dose-response 0-100 μM, n=3, read-out: IC50: Concentration of drug needed in order to inhibit kinase activity by 50%, AurC; for inhibition at 57 µM: read-out: inhibition of Aurora C activity
T1 construct: made in house
T1 sequence (Q9UQB9 1-309): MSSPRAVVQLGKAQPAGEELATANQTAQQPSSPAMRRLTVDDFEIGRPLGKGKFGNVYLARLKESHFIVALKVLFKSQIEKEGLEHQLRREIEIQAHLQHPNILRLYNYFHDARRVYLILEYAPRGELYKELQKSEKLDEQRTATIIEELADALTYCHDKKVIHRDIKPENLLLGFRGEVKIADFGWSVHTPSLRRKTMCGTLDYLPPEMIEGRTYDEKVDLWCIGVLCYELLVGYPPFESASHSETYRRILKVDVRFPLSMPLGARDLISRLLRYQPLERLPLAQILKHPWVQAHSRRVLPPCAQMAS
Procedure: Note that at a concentration of 20 μM of the DLT compounds, the activity of the three Aurora kinases is reduced by approximately 40-50%, whereas at concentrations of 50 μM, i.e. the concentration used in the anti-proliferation assays of example 2B, the activity of said kinases is reduced by 60-75%.
The kinase inhibition profile of DLT95-Cl at 20 μM was determined using 255 protein kinases. Residual activity values were measured by testing each compound at one concentration in duplicate in each kinase assay. A radiometric protein kinase assay (33 PanQinase®Activity Assay) was used for measuring the kinase activity of 250 protein kinases. All kinase assays were performed in 96-well flashPlates™ from Perkin Elmer (Boston, Mass., USA) in a 50 μl reaction volume. The reaction cocktail was pipetted in 4 steps in the following order: • 10 μl of non-radioactive ATP solution (in H2O) • 25 μl of assay buffer/[γ-33P]-ATP mixture • 5 μl of test sample in 10% DMSO • 10 μl of enzyme/substrate mixture
The assay for all enzymes contained 60 mM HEPES-NaOH, pH 7.5, 3 mM MgCl2, 3 mM MnCl2, 3 μM Na-orthovanadate, 1.2 mM DTT, 50 μg/ml PEG20000, 1 μM ATP/[γ-33P]-ATP (approx. […] per well), protein kinase, and substrate. All PKC assays (except the PKC-mu and the PKC-nu assay) additionally contained 1 mM CaCl2, 4 mM EDTA, 5 μg/ml Phosphatidylserine and 1 μg/ml 1,2-Dioleyl-glycerol. The MYLK2, CAMK1D, CAMK2A, CAMK2B, CAMK2D, CAMK4, CAMKK2, DAPK2 and EEF2K assays additionally contained 1 μg/ml Calmodulin and 0.5 mM CaCl2. The PRKG1 and PRKG2 assays additionally contained 1 μM cGMP.
The protein kinases were expressed either in Sf9 insect cells or in E. coli as recombinant GST-fusion proteins or as His-tagged proteins. All kinases were produced from human cDNAs. Kinases were purified by affinity chromatography using either GSH-agarose (Sigma) or Ni-NTH-agarose (Qiagen). The purity of the protein kinases was examined by SDS-PAGE/coomassie staining. The identity of the protein kinases was checked by mass spectroscopy.
The reaction cocktails were incubated at 30° C. for 60 minutes. The reaction was stopped with 50 μl of 2% (v/v) H3PO4, plates were aspirated and washed two times with 200 μl 0.9% (w/v) NaCl. All assays were performed with a BeckmanCoulter Biomek 2000/SL robotic system.
Incorporation of ^33Pi (counting of “cpm”) was determined with a microplate scintillation counter (Microbeta, Wallac).
For each kinase, the median value of the cpm of three wells with complete reaction cocktails, but without kinase, was defined as “low control” […]. This value reflects unspecific binding of radioactivity to the plate in the absence of protein kinase but in the presence of the substrate. Additionally, for each kinase the median value of the cpm of three other wells with the complete reaction cocktail, but without any compound, was taken as the “high control”, i.e. full activity in the absence of any inhibitor […]. The difference between high and low control of was taken as 100% activity for each kinase. As part of the data evaluation the low control value of each kinase was subtracted from the high control value as well as from their corresponding “compound values”. The residual activity (in %) for each compound well was calculated by using the following formula: Res. Activity (%)=100×[(cpm of compound−low control)/(high control−low control)]

U373-MG glioma cell line = assay: Cellular imaging (quantitative videomicroscopy), global growth ratio, U373; format: cell-based; details: Homo sapiens, 72 h, read-out: Global Grow Ratio Treated/Ct (GGR T/Ct) determined by Video Quantitative microscopy, U373

Structure (SMILES): O=C(OCc1cc(COC(=O)c2ccc(O)c(Cl)c2)cc(COC(=O)c2ccc(O)c(Cl)c2)c1)c1ccc(O)c(Cl)c1 [DLT95-Cl, [3,5-bis[(4-hydroxy-3-chloro-benzoyl)oxymethyl]phenyl]methyl 4-hydroxy-3-chloro-benzoate]
- IC50 (Aurora C kinase): 1.8 µM
- inhibition at 57 µM (Aurora C kinase): ≥ 50%

Structure (SMILES): COc1cc(C(=O)OCCOC(=O)c2ccc(O)c(OC)c2)ccc1O [DLT1, Ethane-1,2-diyl bis-(4-hydroxy-3-methoxybenzoate)]
- activity at 50 µM (U373-MG glioma cell line; 50 μM): 30%

Structure (SMILES): COc1cc(C(=O)OCCCCCCOC(=O)c2ccc(O)c(OC)c2)ccc1O [DLT11, Hexane-1,6-diyl bis-(4-hydroxy-3-methoxybenzoate)]
- activity at 50 µM (U373-MG glioma cell line; 50 μM): 20%

- IC50 (Aurora C kinase): > 100 µM
Structure (SMILES): COc1cc(C(=O)O)ccc1O [vanillic acid, reference compound]

Structure (SMILES): O=C(OCc1cc(COC(=O)c2ccc(O)c(F)c2)cc(COC(=O)c2ccc(O)c(F)c2)c1)c1ccc(O)c(F)c1 [DLT95-F, [3,5-bis[(4-hydroxy-3-fluoro-benzoyl)oxymethyl]phenyl]methyl 4-hydroxy-3-fluoro-benzoate]
- IC50 (Aurora C kinase): 4.7 µM
- inhibition at 57 µM (Aurora C kinase): ≥ 50%

Structure (SMILES): COc1cc(C(=O)OCc2cc(COC(=O)c3ccc(O)c(OC)c3)cc(COC(=O)c3ccc(O)c(OC)c3)c2)ccc1O [DLT95, [3,5-bis[(4-hydroxy-3-methoxy-benzoyl)oxymethyl]phenyl]methyl 4-hydroxy-3-methoxy-benzoate]
- IC50 (Aurora C kinase): 3.3 µM
- activity at 50 µM (U373-MG glioma cell line): 10%
